Experimental data: ChEMBL document CHEMBL1201862, “PubChem BioAssay data set” (2004)
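Protocol summary: plate cells (96-well), add compound at 5 concentrations, incubate 48 h, interpolate endpoints linearly. Here, GI50 denotes the concentration required for 50% inhibition of growth.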 Calls of active or inactive are those of the source. No stated cut-off is given here; in the data, active = GI50 up to about 1.1 µM and inactive = higher.

Columns and labels:
Assay in all cases: DTP human tumour cell line panel, 48 h
SK-MEL-5 = system: SK-MEL-5
COLO 205 = system: COLO 205
OVCAR-3 = system: OVCAR-3
M14 = system: M14
HOP-62 = system: HOP-62
NCI-H522 = system: NCI-H522
MOLT-4 = system: MOLT-4
SN12C = system: SN12C
HCT-15 = system: HCT-15
SW-620 = system: SW-620
SF-295 = system: SF-295
SK-OV-3 = system: SK-OV-3
MCF7 = system: MCF7
EKVX = system: EKVX
MDA-MB-231 = system: MDA-MB-231
SK-MEL-2 = system: SK-MEL-2
ACHN = system: ACHN
PC-3 = system: PC-3
SNB-75 = system: SNB-75

Row | SMILES | GI50 (SK-MEL-5) | GI50 (COLO 205) | GI50 (OVCAR-3) | GI50 (M14) | GI50 (HOP-62) | GI50 (NCI-H522) | GI50 (MOLT-4) | GI50 (SN12C) | GI50 (HCT-15) [µM] | GI50 (SW-620) | GI50 (SF-295) | GI50 (SK-OV-3) | GI50 (MCF7) | GI50 (EKVX) | GI50 (MDA-MB-231) | GI50 (SK-MEL-2) | GI50 (ACHN) | GI50 (PC-3) | GI50 (SNB-75)
1 | COC1OC(C)C(OC(=O)C(C)(C)C)C(C)(O)C1O (stereo not given) | > 100 µM (inactive) | > 100 µM (inactive) | > 100 µM (inactive) | > 100 µM (inactive) | > 100 µM (inactive) | > 100 µM (inactive) | > 100 µM (inactive) | > 100 µM (inactive) | > 100 | > 100 µM (inactive) | > 100 µM (inactive) |  |  |  |  |  |  |  | 
2 | CCOC(=O)c1c(C)[n+]([O-])c2cc(Cl)c(Cl)cc2[n+]1[O-] | 16.7 µM (inactive) | 19.7 µM (inactive) | 15.6 µM (inactive) | 23.1 µM (inactive) | 21 µM (inactive) |  | 16.2 µM (inactive) | 20.4 µM (inactive) | 14.3 |  | 29.4 µM (inactive) | 26.7 µM (inactive) | 32.5 µM (inactive) | 24.1 µM (inactive) | 21.1 µM (inactive) | 23.3 µM (inactive) | 29.3 µM (inactive) | 26.9 µM (inactive) | 
3 | Cc1nc2c(n1CC(C)C)C(=O)c1ccccc1C2=O | 18.8 µM (inactive) | 36 µM (inactive) | 25.4 µM (inactive) | 61.7 µM (inactive) | 42.1 µM (inactive) | 26.5 µM (inactive) | 38.6 µM (inactive) | 37.1 µM (inactive) | 37.5 | 41.1 µM (inactive) | 39.2 µM (inactive) | 62.4 µM (inactive) |  | 38 µM (inactive) |  | 25.5 µM (inactive) | 32.1 µM (inactive) |  | 42.8 µM (inactive)
4 | CCOC(=O)C1=c2[nH]c3cccc4cccc(c43)n2C=C(C(C)=O)C1CC(C)=O (stereo not given) | > 100 µM (inactive) | 35.1 µM (inactive) | > 100 µM (inactive) | > 100 µM (inactive) | 68.7 µM (inactive) |  | > 100 µM (inactive) | > 100 µM (inactive) | 44 | 40.6 µM (inactive) | > 100 µM (inactive) | 6.4 µM (inactive) | 94.2 µM (inactive) | > 100 µM (inactive) |  | > 100 µM (inactive) | 80 µM (inactive) | > 100 µM (inactive) | > 100 µM (inactive)
5 | Cc1n[nH]c(=O)n1/N=C/c1ccc(F)cc1 |  | > 100 µM (inactive) | > 100 µM (inactive) | > 100 µM (inactive) | > 100 µM (inactive) | > 100 µM (inactive) | > 100 µM (inactive) | > 100 µM (inactive) | > 100 | > 100 µM (inactive) | > 100 µM (inactive) | > 100 µM (inactive) |  | 92.9 µM (inactive) |  |  | > 100 µM (inactive) |  | 65.2 µM (inactive)
6 | CCOC(=O)c1cc2cc(Cc3ccc4[nH]c(C(=O)OCC)cc4c3)ccc2[nH]1 |  | 47.3 µM (inactive) | 73.6 µM (inactive) | > 100 µM (inactive) | 5.14 µM (inactive) |  | > 100 µM (inactive) | 23.7 µM (inactive) | > 100 | 63.5 µM (inactive) | 17.5 µM (inactive) | 13.6 µM (inactive) | 52.4 µM (inactive) | 21.5 µM (inactive) | 15.5 µM (inactive) | 26.7 µM (inactive) | 14.5 µM (inactive) | 34.3 µM (inactive) | 12.2 µM (inactive)
7 | COC(=O)C(CCCC1(c2ccccc2)OCCO1)C(C)=O (stereo not given) | 66.4 µM (inactive) | > 100 µM (inactive) | > 100 µM (inactive) | > 100 µM (inactive) | > 100 µM (inactive) | 64 µM (inactive) | > 100 µM (inactive) | > 100 µM (inactive) | > 100 | > 100 µM (inactive) | > 100 µM (inactive) | > 100 µM (inactive) |  | > 100 µM (inactive) |  | > 100 µM (inactive) | 38.1 µM (inactive) |  | 30.2 µM (inactive)
8 | COc1ccc(C(=O)/C=C/c2ccc(OCCCCCCCCCCOc3ccc(/C=C/C(=O)c4ccc(OC)c(OC)c4)cc3)cc2)c(OC)c1 | > 100 µM (inactive) | > 100 µM (inactive) |  | > 100 µM (inactive) | > 100 µM (inactive) |  | > 100 µM (inactive) | > 100 µM (inactive) | > 100 | > 100 µM (inactive) | > 100 µM (inactive) | > 100 µM (inactive) | > 100 µM (inactive) | > 100 µM (inactive) | > 100 µM (inactive) | > 100 µM (inactive) | > 100 µM (inactive) | > 100 µM (inactive) | > 100 µM (inactive)
9 | CSC(SC)=C(C#N)C(=O)Nc1ccc(Cl)cc1 | 51.6 µM (inactive) | 18.3 µM (inactive) | > 100 µM (inactive) | 48.4 µM (inactive) |  |  | 27.7 µM (inactive) | > 100 µM (inactive) | 33.2 | 44.1 µM (inactive) |  | > 100 µM (inactive) | 41.8 µM (inactive) | 44.7 µM (inactive) | > 100 µM (inactive) | > 100 µM (inactive) |  | 54.2 µM (inactive) | 95.3 µM (inactive)
10 | Cc1ccc(Cc2nn(C)c(=O)n2N)cc1 | > 100 µM (inactive) | > 100 µM (inactive) | > 100 µM (inactive) | > 100 µM (inactive) |  |  |  | > 100 µM (inactive) | > 100 | > 100 µM (inactive) | > 100 µM (inactive) | > 100 µM (inactive) | > 100 µM (inactive) | > 100 µM (inactive) | > 100 µM (inactive) | > 100 µM (inactive) | > 100 µM (inactive) | > 100 µM (inactive) | 
11 | CS(=O)(=O)CC(=O)c1ccccc1 | > 100 µM (inactive) | > 100 µM (inactive) | > 100 µM (inactive) | > 100 µM (inactive) | > 100 µM (inactive) | > 100 µM (inactive) | > 100 µM (inactive) | > 100 µM (inactive) | > 100 | > 100 µM (inactive) | > 100 µM (inactive) | > 100 µM (inactive) | > 100 µM (inactive) | > 100 µM (inactive) |  | > 100 µM (inactive) | > 100 µM (inactive) | > 100 µM (inactive) | 38.8 µM (inactive)
12 | N#Cc1c(-c2cccc(Br)c2)cc(-c2ccc(Cl)cc2)nc1N | 15.2 µM (inactive) | 13.7 µM (inactive) | 25.4 µM (inactive) | 20.7 µM (inactive) | 23.5 µM (inactive) | 14.1 µM (inactive) | 15.8 µM (inactive) | 19.1 µM (inactive) | 14.1 | 18.2 µM (inactive) | 16.6 µM (inactive) | 16.8 µM (inactive) | 26.2 µM (inactive) | 10.5 µM (inactive) |  | 11.6 µM (inactive) | 21.8 µM (inactive) | 22.2 µM (inactive) | 
13 | CCCCCCCN1C(=O)C(O)(c2ccc(C3(O)C(=O)N(CCCCCCC)c4ccccc43)s2)c2ccccc21 (stereo not given) | 1.79 µM (inactive) | 1.63 µM (inactive) |  | 1.79 µM (inactive) | 1.77 µM (inactive) |  | 2.03 µM (inactive) | 1.9 µM (inactive) | 2.12 | 2.18 µM (inactive) | 1.85 µM (inactive) | 0.753 µM (active) | 2.21 µM (inactive) |  | 2.19 µM (inactive) | 1.47 µM (inactive) | 2.26 µM (inactive) | 1.97 µM (inactive) | 5.4 µM (inactive)
